Data as given in ChEMBL document CHEMBL4507310, “Data for DCP probe A-1211212” (2021).

Experiments:
[1] = molecular target: Tyrosine-protein kinase Srms (Homo sapiens) (UniProt Q9H3Y6); details: Compound concentration 1000.0 nM
[2] = molecular target: Phosphatidylinositol 4-phosphate 3-kinase C2 domain-containing subunit beta (Homo sapiens) (UniProt O00750); details: Compound concentration 1000.0 nM
[3] = molecular target: Tyrosine-protein kinase Lck (Homo sapiens) (UniProt P06239); details: Compound concentration 1000.0 nM
[4] = molecular target: High affinity nerve growth factor receptor (Homo sapiens) (UniProt P04629); details: Compound concentration 1000.0 nM
[5] = system: Fibroblast growth factor receptor 3 (Homo sapiens), P22607 [G697C]; details: Compound concentration 1000.0 nM
[6] = molecular target: Mitogen-activated protein kinase kinase kinase 7 (Homo sapiens) (UniProt O43318); details: Compound concentration 1000.0 nM
[7] = molecular target: Serine/threonine-protein kinase SIK2 (Homo sapiens) (UniProt Q9H0K1); details: Compound concentration 1000.0 nM
[8] = molecular target: 5-hydroxytryptamine receptor 1B (Homo sapiens) (UniProt P28222); test: 5-HT1B(h) Eurofins-Cerep binding assay; design: ligand concentration 1 nM; details: filed as antagonist, Compound concentration 10.0 uM
Rattus norvegicus = species: Rattus norvegicus; details: Compound concentration 10.0 uM
[9] = molecular target: Tyrosine-protein kinase FRK (Homo sapiens) (UniProt P42685); details: Compound concentration 1000.0 nM
[10] = molecular target: Ribosomal protein S6 kinase alpha-3 (Homo sapiens) (UniProt P51812); details: Compound concentration 1000.0 nM
[11] = molecular target: Phosphatidylinositol 4,5-bisphosphate 3-kinase catalytic subunit delta isoform (Homo sapiens) (UniProt O00329); details: Compound concentration 1000.0 nM
[12] = molecular target: Cyclin-G-associated kinase (Homo sapiens) (UniProt O14976); details: Compound concentration 1000.0 nM
[13] = molecular target: Bone morphogenetic protein receptor type-1B (Homo sapiens) (UniProt O00238); details: Compound concentration 1000.0 nM
[14] = molecular target: Muscle, skeletal receptor tyrosine-protein kinase (Homo sapiens) (UniProt O15146); details: Compound concentration 1000.0 nM
[15] = molecular target: Sigma non-opioid intracellular receptor 1 (Homo sapiens) (UniProt Q99720); details: Compound concentration 10.0 uM
[16] = molecular target: Dual specificity mitogen-activated protein kinase kinase 2 (Homo sapiens) (UniProt P36507); details: Compound concentration 1000.0 nM
[17] = system: Phosphatidylinositol 4,5-bisphosphate 3-kinase catalytic subunit alpha isoform (Homo sapiens), P42336 [E542K]; details: Compound concentration 1000.0 nM
[18] = molecular target: Mitogen-activated protein kinase kinase kinase 13 (Homo sapiens) (UniProt O43283); details: Compound concentration 1000.0 nM
[19] = molecular target: T1, Muscarinic acetylcholine receptor M5 (Homo sapiens) (UniProt P08912); details: Compound concentration 10.0 uM
T1 sequence (whole entry): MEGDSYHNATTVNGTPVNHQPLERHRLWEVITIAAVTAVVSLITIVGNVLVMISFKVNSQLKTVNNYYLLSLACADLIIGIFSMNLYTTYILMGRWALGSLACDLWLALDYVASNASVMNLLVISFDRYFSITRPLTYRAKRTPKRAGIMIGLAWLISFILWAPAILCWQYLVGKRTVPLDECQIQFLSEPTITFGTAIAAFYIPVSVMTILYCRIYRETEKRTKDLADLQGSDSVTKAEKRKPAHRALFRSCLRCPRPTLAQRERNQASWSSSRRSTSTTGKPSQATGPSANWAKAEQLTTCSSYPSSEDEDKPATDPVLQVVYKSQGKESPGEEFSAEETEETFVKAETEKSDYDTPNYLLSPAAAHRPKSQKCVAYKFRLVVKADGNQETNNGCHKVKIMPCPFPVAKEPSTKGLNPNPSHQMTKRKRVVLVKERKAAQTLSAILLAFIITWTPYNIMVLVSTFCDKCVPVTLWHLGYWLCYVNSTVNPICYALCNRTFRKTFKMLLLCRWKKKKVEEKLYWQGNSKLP

[20] = molecular target: Serine/threonine-protein kinase Nek10 (Homo sapiens) (UniProt Q6ZWH5); details: Compound concentration 1000.0 nM
[21] = molecular target: Melatonin receptor type 1B (Homo sapiens) (UniProt P49286); test: MT2 (ML1B) (h) Eurofins-Cerep binding assay; design: ligand concentration 0.05 nM; details: filed as agonist, Compound concentration 10.0 uM
[22] = system: Tyrosine-protein kinase ABL1 (Homo sapiens), P00519 [Y253F]; details: Compound concentration 1000.0 nM
[23] = molecular target: Cyclin-dependent kinase 9 (Homo sapiens) (UniProt P50750); details: Compound concentration 1000.0 nM
[24] = system: Epidermal growth factor receptor (Homo sapiens), P00533 [T790M]; details: Compound concentration 1000.0 nM
[25] = molecular target: Tyrosine-protein kinase Lyn (Homo sapiens) (UniProt P07948); details: Compound concentration 1000.0 nM
[26] = molecular target: Casein kinase I isoform gamma-1 (Homo sapiens) (UniProt Q9HCP0); details: Compound concentration 1000.0 nM
[27] = system: Receptor-type tyrosine-protein kinase FLT3 (Homo sapiens), P36888 [D835V]; details: Compound concentration 1000.0 nM
[28] = molecular target: LIM domain kinase 1 (Homo sapiens) (UniProt P53667); details: Compound concentration 1000.0 nM
[29] = molecular target: Ribosomal protein S6 kinase alpha-5 (Homo sapiens) (UniProt O75582); details: Compound concentration 1000.0 nM
[30] = molecular target: Ephrin type-A receptor 8 (Homo sapiens) (UniProt P29322); details: Compound concentration 1000.0 nM
[31] = molecular target: Serine/threonine-protein kinase N2 (Homo sapiens) (UniProt Q16513); details: Compound concentration 1000.0 nM
[32] = molecular target: Serine/threonine-protein kinase MARK1 (Homo sapiens) (UniProt Q9P0L2); details: Compound concentration 1000.0 nM
[33] = molecular target: Calcium/calmodulin-dependent protein kinase type 1B (Homo sapiens) (UniProt Q6P2M8); details: Compound concentration 1000.0 nM
[34] = molecular target: Serine/threonine-protein kinase 32B (Homo sapiens) (UniProt Q9NY57); details: Compound concentration 1000.0 nM
[35] = molecular target: Mitogen-activated protein kinase kinase kinase 1 (Homo sapiens) (UniProt Q13233); details: Compound concentration 1000.0 nM
[36] = molecular target: Mitogen-activated protein kinase kinase kinase 19 (Homo sapiens) (UniProt Q56UN5); details: Compound concentration 1000.0 nM
[37] = system: Tyrosine-protein kinase ABL1 (Homo sapiens), P00519 [M351T]; details: Compound concentration 1000.0 nM

Sequence of Ribosomal protein S6 kinase alpha-3 (Homo sapiens) (P51812 whole entry, canonical isoform): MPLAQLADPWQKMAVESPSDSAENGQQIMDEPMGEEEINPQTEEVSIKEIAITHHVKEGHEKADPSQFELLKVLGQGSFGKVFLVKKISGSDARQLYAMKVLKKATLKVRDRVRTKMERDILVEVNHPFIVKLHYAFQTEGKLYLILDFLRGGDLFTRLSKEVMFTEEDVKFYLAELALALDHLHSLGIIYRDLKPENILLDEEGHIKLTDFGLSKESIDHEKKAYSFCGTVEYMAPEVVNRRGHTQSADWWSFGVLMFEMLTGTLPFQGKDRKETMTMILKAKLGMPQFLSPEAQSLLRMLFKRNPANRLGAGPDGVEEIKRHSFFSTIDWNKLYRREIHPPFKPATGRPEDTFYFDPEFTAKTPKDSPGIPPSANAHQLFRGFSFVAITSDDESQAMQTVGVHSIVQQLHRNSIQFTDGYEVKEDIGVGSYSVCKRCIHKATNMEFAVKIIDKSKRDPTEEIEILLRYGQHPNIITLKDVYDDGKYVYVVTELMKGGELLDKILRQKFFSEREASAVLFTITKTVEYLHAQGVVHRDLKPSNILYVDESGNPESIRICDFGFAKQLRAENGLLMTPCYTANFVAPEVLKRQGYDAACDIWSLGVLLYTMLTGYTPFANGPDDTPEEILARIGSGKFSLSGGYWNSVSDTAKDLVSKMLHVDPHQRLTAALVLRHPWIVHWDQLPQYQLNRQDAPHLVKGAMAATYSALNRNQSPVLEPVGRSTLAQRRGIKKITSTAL
Sequence of Ephrin type-A receptor 8 (Homo sapiens) (P29322 whole entry): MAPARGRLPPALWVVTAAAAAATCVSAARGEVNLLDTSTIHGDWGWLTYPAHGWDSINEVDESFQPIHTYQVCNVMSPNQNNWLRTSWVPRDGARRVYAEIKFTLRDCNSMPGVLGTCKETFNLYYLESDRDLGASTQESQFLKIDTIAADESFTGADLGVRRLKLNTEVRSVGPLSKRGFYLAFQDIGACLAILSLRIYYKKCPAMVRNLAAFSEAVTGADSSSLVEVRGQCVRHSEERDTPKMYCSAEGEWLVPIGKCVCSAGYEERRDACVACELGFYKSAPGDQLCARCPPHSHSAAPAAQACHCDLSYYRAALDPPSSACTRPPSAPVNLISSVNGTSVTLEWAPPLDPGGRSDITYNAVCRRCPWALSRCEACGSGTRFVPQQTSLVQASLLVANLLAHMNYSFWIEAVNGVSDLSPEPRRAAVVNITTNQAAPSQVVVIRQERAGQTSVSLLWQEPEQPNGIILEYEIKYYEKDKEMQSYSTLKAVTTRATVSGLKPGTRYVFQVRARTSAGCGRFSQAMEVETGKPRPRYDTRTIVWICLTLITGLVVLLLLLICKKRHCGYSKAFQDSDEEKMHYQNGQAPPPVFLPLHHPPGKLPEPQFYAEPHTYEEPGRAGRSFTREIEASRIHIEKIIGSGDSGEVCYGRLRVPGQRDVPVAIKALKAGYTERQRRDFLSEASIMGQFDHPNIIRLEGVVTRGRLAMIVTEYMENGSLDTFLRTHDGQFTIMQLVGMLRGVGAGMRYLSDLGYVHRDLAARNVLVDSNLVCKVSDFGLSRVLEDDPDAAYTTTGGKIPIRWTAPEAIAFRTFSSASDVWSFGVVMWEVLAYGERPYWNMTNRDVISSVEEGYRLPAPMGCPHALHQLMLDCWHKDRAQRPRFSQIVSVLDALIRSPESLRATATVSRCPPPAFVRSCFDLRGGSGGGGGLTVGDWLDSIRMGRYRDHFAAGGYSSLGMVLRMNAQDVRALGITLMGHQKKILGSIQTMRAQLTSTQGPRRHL
Sequence of Cyclin-G-associated kinase (Homo sapiens) (O14976 whole entry): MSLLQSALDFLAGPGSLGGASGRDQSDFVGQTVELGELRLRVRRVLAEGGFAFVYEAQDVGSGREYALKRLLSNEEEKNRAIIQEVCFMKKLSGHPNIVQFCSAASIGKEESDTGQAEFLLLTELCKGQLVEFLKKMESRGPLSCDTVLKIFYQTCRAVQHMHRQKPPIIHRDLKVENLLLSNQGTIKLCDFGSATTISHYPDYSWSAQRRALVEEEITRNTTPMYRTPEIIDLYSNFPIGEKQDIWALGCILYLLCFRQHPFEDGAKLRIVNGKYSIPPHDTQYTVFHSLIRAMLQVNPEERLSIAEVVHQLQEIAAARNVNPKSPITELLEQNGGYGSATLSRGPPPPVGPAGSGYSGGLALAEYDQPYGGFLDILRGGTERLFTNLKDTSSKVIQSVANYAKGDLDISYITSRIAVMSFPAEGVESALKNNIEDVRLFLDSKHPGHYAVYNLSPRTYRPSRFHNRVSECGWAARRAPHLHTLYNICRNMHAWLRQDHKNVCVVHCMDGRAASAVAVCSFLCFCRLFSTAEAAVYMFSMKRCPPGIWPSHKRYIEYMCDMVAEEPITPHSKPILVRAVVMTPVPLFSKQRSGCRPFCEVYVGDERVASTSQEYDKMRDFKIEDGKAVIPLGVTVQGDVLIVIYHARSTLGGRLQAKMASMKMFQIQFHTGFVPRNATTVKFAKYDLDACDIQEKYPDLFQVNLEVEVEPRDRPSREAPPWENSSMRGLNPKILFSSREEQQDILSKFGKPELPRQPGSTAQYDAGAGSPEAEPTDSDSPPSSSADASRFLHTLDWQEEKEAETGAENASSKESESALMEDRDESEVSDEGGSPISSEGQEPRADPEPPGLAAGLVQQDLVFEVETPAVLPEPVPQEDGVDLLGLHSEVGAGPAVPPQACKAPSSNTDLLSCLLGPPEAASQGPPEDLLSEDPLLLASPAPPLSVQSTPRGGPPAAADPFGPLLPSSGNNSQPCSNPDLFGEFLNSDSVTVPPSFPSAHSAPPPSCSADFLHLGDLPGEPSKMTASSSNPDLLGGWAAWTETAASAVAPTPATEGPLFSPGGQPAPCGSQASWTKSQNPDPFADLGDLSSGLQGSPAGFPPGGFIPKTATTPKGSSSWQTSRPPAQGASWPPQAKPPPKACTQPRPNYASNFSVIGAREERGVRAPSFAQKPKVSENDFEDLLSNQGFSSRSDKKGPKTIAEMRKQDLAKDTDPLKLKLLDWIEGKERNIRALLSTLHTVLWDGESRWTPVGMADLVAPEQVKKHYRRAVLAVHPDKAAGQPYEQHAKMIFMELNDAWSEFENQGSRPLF
Sequence of Serine/threonine-protein kinase 32B (Homo sapiens) (Q9NY57 whole entry): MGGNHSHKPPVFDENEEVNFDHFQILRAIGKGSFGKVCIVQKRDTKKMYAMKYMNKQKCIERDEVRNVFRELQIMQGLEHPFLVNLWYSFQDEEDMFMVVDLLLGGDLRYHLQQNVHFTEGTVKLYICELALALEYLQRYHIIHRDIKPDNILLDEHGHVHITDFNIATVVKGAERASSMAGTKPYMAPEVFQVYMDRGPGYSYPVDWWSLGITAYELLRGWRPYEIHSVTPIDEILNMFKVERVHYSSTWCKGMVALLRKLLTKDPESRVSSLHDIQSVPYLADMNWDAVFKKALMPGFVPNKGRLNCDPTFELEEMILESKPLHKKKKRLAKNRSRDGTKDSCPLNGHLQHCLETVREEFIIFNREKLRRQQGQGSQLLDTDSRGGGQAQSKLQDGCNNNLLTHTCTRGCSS
Sequence of Phosphatidylinositol 4,5-bisphosphate 3-kinase catalytic subunit delta isoform (Homo sapiens) (O00329 whole entry, canonical isoform): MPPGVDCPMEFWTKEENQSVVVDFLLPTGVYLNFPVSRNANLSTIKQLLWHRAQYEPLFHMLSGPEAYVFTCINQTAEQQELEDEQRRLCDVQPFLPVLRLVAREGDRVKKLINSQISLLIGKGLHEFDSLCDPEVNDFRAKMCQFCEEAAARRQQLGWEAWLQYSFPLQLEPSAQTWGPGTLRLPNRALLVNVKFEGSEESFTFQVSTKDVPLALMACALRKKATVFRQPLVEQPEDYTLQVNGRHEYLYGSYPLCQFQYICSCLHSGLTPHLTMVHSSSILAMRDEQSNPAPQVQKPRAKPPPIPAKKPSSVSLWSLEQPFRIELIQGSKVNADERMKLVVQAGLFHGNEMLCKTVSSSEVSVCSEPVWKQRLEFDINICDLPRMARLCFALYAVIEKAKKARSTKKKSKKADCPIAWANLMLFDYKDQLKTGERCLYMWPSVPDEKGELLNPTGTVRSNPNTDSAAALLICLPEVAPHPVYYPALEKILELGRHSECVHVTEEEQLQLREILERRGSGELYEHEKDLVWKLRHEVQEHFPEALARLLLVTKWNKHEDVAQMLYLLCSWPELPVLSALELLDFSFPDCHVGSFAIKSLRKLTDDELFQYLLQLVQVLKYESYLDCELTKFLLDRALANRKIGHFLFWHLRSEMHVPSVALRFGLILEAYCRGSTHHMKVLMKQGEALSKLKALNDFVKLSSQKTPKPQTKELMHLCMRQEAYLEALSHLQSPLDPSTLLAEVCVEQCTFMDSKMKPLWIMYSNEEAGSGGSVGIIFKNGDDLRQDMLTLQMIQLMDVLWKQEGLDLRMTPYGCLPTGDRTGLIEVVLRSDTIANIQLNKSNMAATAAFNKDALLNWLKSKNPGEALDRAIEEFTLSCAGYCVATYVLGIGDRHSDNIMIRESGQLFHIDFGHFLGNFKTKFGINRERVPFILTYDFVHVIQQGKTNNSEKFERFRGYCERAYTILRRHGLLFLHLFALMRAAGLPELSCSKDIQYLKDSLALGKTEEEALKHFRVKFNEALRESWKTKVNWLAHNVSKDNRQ
Sequence of Tyrosine-protein kinase Lck (Homo sapiens) (P06239 2-509 limits assumed): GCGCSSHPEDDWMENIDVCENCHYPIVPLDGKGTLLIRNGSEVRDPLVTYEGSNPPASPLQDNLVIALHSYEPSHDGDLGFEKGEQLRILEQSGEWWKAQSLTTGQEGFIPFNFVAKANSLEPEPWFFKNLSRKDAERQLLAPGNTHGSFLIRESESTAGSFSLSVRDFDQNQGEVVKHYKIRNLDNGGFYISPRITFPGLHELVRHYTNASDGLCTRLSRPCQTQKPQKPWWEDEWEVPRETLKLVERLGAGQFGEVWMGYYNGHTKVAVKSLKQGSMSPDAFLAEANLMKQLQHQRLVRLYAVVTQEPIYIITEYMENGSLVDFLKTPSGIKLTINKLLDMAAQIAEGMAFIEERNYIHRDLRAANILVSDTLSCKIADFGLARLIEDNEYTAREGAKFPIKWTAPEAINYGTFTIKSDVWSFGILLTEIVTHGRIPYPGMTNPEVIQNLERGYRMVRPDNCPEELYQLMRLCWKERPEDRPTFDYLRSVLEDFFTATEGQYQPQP

## O=C(NS(=O)(=O)c1ccc(NCC2CCOCC2)c([N+](=O)[O-])c1)c1ccc(N2CCN(Cc3ccc(C(F)(F)F)cc3-c3ccc(Cl)cc3)CC2)cc1Oc1cnc2[nH]ccc2c1 [A-1210227]
[1]
  residual activity: 79%
[2]
  residual activity: 83%
[3]
  residual activity: 100%
[4]
  residual activity: 100%
[5]
  residual activity: 100%
[6]
  residual activity: 100%
[7]
  residual activity: 100%
[8]
  % Inhibition of Control Specific Binding (Mean n=2): -4.9%
Rattus norvegicus
  inhibition: 11.6%
[9]
  residual activity: 100%
[10]
  residual activity: 100%
[11]
  residual activity: 60%
[12]
  residual activity: 100%
[13]
  residual activity: 89%
[14]
  residual activity: 98%
[15]
  inhibition: 11.1%
[16]
  residual activity: 100%
[17]
  residual activity: 98%
[18]
  residual activity: 91%
[19]
  inhibition: 10%
[20]
  residual activity: 100%
[21]
  % Inhibition of Control Specific Binding (Mean n=2): 10.2%
[22]
  residual activity: 96%
[23]
  residual activity: 100%
[24]
  residual activity: 98%
[25]
  residual activity: 99%
[26]
  residual activity: 95%
[27]
  residual activity: 100%
[28]
  residual activity: 85%
[29]
  residual activity: 95%
[30]
  residual activity: 84%
[31]
  residual activity: 93%
[32]
  residual activity: 81%
[33]
  residual activity: 0%
[34]
  residual activity: 100%
[35]
  residual activity: 100%
[36]
  residual activity: 71%
[37]
  residual activity: 100%

## CO[C@H]1CC[C@H](CNc2ccc(S(=O)(=O)NC(=O)c3ccc(N4CCN(CC5=C(c6ccc(Cl)cc6)CC(C)(C)CC5)CC4)cc3Oc3cnc4[nH]ccc4c3)cc2[N+](=O)[O-])CC1 [A-1211212]
[1]
  residual activity: 89%
[2]
  residual activity: 92%
[3]
  residual activity: 73%
[4]
  residual activity: 100%
[5]
  residual activity: 100%
[6]
  residual activity: 100%
[7]
  residual activity: 100%
[8]
  % Inhibition of Control Specific Binding (Mean n=2): -1%
Rattus norvegicus
  inhibition: 41.5%
[9]
  residual activity: 100%
[10]
  residual activity: 71%
[11]
  residual activity: 75%
[12]
  residual activity: 99%
[13]
  residual activity: 92%
[14]
  residual activity: 100%
[15]
  inhibition: 49.8%
[16]
  residual activity: 100%
[17]
  residual activity: 94%
[18]
  residual activity: 89%
[19]
  inhibition: 12.5%
[20]
  residual activity: 100%
[21]
  % Inhibition of Control Specific Binding (Mean n=2): 32%
[22]
  residual activity: 100%
[23]
  residual activity: 91%
[24]
  residual activity: 98%
[25]
  residual activity: 74%
[26]
  residual activity: 100%
[27]
  residual activity: 100%
[28]
  residual activity: 89%
[29]
  residual activity: 90%
[30]
  residual activity: 84%
[31]
  residual activity: 97%
[32]
  residual activity: 74%
[33]
  residual activity: 81%
[34]
  residual activity: 100%
[35]
  residual activity: 100%
[36]
  residual activity: 64%
[37]
  residual activity: 85%
